Measured values reported in patent US8916604B2, “Compositions and methods for epigenetic modification of nucleic acid sequences” (Rutgers, The State University of New Jersey, priority 2011, dated 2014).

Assays:
PCNA = assay: IHC staining of TRAMP prostate tissue, cell proliferation; format: in vivo, mouse; conditions: D-G1 (16 weeks) or D-G2 (12 weeks) vs control
Protocol: Sections (4 μm) were cut from the paraffin embedded prostate tissue and mounted on glass slides. The slides Were deparafinized in xylene and antigen unmasking was performed by applying proteinase K digestion directly on the slides for 15 min. Endogenous peroxidase was blocked by incubating in 3% […] for 5 min, and ApopTag Plus Peroxidase In Situ Apoptosis Detection Kit (Millipore, Temecula, Calif., U.S.A.) was used to detect apoptotic cells. For detection of proliferative cells, monoclonal mouse anti-proliferating cell nuclear antigen (PCNA) antibody (Clone PC10, 1:50, Dako North America, Carpinteria, Calif., U.S.A.) was used (12). The staining was performed following as the manufacturer's protocols. Anti-5-methylcytosine (5-MC) mouse monoclone antibody (Clone 162 33 D3, 1:50, EMD Chemicals, Philadelphia, Pa., U.S.A.) was used to detect genome-wide methylated DNA. […] Quantitation of IHC staining was done using the Aperio ScanScope® GL system according to the manufactures protocol (Aperio Technologies Inc., Vista, Calif., U.S.A.). […] The Aperio ImageScopoe software (v 10.1.3.2028) allowed the unbiased quantification and quantitative analysis of the IHC staining of biomarkers of prostate tumor samples obtained from untreated control versus the treated TRAMP mice.

[1] = system: first 5 CpGs in the promoter region of Nrf2 gene; assay: Bisulfite genomic sequencing of TRAMP C1 cells; format: cell-based, mouse; conditions: 5 days, untreated control 96.8%
Protocol: The DIM used in the study contains approximately 98% of DIM purchased from Sigma-Aldrich t St. Louis, Mo., USA), TRAMP C1 cells (provided by Dr. Barbara Foster, Department of Pharmacology and Therapeutics, Roswell Park Cancer institute, Buffalo. NY), originally derived from TRAMP prostate tumor, were cultured in Dulbecco's Modified Eagle's Medium (Invitrogen Corp., Carlsbad, Calif. U.S.A.) supplemented with 10% (V/V) fetal bovine serum (FBS) (Invitrogen Corp., Grand Island, N.Y., U.S.A.), penicillin 100 U/ml, and streptomycin 100 μg/ml (Invitrogen Corp., Grand Island, N.Y., U.S.A.), Cells were maintained in a humidified incubator with 5% CO2 at 37° C. Cells were seeded in 10 cm plates for 24 h and then treated with 0.1% DMSO (control) or different concentrations of DIM in 1% FBS containing medium for 5 days. The medium was changed every 2 days (20),
Genomic DNA was isolated from the control or DIM treated TRAMP C1 cells and TRAMP dorso-lateral prostate tissues collected from control and DIM treated groups pooled and homogenized using the DNeasy tissue kit (Qiagen, Valencia, Calif., U.S.A.). The genomic DNAs were extracted and subjected to bisulfite conversion carried out using 750 ng of genomic DNA and applying to EZ DNA Methylation Gold Kits (Zymo Research Corp., Orange, Calif., U.S.A.) following the manufacturer's instructions. […]

## c1ccc2c(Cc3c[nH]c4ccccc34)c[nH]c2c1 [DIM, 3,3′-diindolylmethane]
PCNA
  PCNA staining (cell proliferation): significantly lower levels
[1]; 2.5 μM
  methylation of the first 5 CpGs of Nrf2 promoter: 73.7%
[1]; 5 μM
  methylation of the first 5 CpGs of Nrf2 promoter: 55.8%
